# Data reported in PubChem BioAssay (NCI).
#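 At the GI50, growth is halved. Definition used: TGI = concentration required for complete inhibition of growth.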
# Key:
# Assay in all cases: NCI-60 cell line screen, 384-well format
# U251 glioblastoma = test system: U251 glioblastoma
# MOLT-4 leukemia = test system: MOLT-4 leukemia
# HCT-15 colon = test system: HCT-15 colon
# SK-MEL-28 melanoma = test system: SK-MEL-28 melanoma
# ACHN renal = test system: ACHN renal
# MDA-MB-468 breast = test system: MDA-MB-468 breast
# T-47D breast = test system: T-47D breast
# PC-3 prostate = test system: PC-3 prostate
# A498 renal = test system: A498 renal
# SR leukemia = test system: SR leukemia
# SK-MEL-5 melanoma = test system: SK-MEL-5 melanoma
# UACC-257 melanoma = test system: UACC-257 melanoma
# SK-OV-3 ovarian = test system: SK-OV-3 ovarian
# HCT-116 colon = test system: HCT-116 colon
# M14 melanoma = test system: M14 melanoma
# A549 NSCLC = test system: A549 NSCLC
# COLO 205 colon = test system: COLO 205 colon
# SN12C renal = test system: SN12C renal
# 786-0 renal = test system: 786-0 renal
# OVCAR-3 ovarian = test system: OVCAR-3 ovarian
# KM12 colon = test system: KM12 colon
# RXF 393 renal = test system: RXF 393 renal
# IGROV1 ovarian = test system: IGROV1 ovarian
# SNB-75 CNS = test system: SNB-75 CNS
# UACC-62 melanoma = test system: UACC-62 melanoma
# OVCAR-5 ovarian = test system: OVCAR-5 ovarian
# RPMI-8226 leukemia = test system: RPMI-8226 leukemia
# SW-620 colon = test system: SW-620 colon
# UO-31 renal = test system: UO-31 renal
# SF-539 CNS = test system: SF-539 CNS
# CCRF-CEM leukemia = test system: CCRF-CEM leukemia
# MDA-MB-435 melanoma = test system: MDA-MB-435 melanoma
# DU-145 prostate = test system: DU-145 prostate
# BT-549 breast = test system: BT-549 breast
# EKVX NSCLC = test system: EKVX NSCLC
# HOP-62 NSCLC = test system: HOP-62 NSCLC
# NCI-H460 NSCLC = test system: NCI-H460 NSCLC
# MDA-MB-231 breast = test system: MDA-MB-231 breast
# HL-60(TB) leukemia = test system: HL-60(TB) leukemia
# LOX IMVI melanoma = test system: LOX IMVI melanoma
# HCC-2998 colon = test system: HCC-2998 colon
# OVCAR-4 ovarian = test system: OVCAR-4 ovarian
# HOP-92 NSCLC = test system: HOP-92 NSCLC
# SF-295 CNS = test system: SF-295 CNS
# NCI-H522 lung = test system: NCI-H522 lung
# HT29 colon = test system: HT29 colon
# NCI-H226 lung = test system: NCI-H226 lung
# SK-MEL-2 melanoma = test system: SK-MEL-2 melanoma
# K-562 leukemia = test system: K-562 leukemia
# SF-268 CNS = test system: SF-268 CNS
# NCI-H322M lung = test system: NCI-H322M lung
# TK-10 renal = test system: TK-10 renal
# CAKI-1 renal = test system: CAKI-1 renal
# HS 578T breast = test system: HS 578T breast
# NCI-H23 lung = test system: NCI-H23 lung
# SNB-19 CNS = test system: SNB-19 CNS
# MCF7 breast = test system: MCF7 breast
# MALME-3M melanoma = test system: MALME-3M melanoma
# NCI/ADR-RES ovarian = test system: NCI/ADR-RES ovarian
compound,measurement,setting,value
Cc1cc([N+](=O)[O-])ccc1NS(=O)(=O)c1cc(Cl)ccc1Cl,GI50,U251 glioblastoma,2.91 µM
same,TGI,U251 glioblastoma,10.5 µM
same,GI50,MOLT-4 leukemia,7.48 µM
same,TGI,MOLT-4 leukemia,20.2 µM
same,GI50,HCT-15 colon,3.44 µM
same,TGI,HCT-15 colon,14.9 µM
same,GI50,SK-MEL-28 melanoma,5.46 µM
same,TGI,SK-MEL-28 melanoma,32.4 µM
same,GI50,ACHN renal,14.4 µM
same,TGI,ACHN renal,67.9 µM
same,GI50,MDA-MB-468 breast,2.16 µM
same,TGI,MDA-MB-468 breast,9.32 µM
same,GI50,T-47D breast,2.65 µM
same,TGI,T-47D breast,6.31 µM
same,GI50,PC-3 prostate,3.59 µM
same,TGI,PC-3 prostate,14.6 µM
same,GI50,A498 renal,4.63 µM
same,TGI,A498 renal,22.6 µM
same,GI50,SR leukemia,19.1 µM
same,TGI,SR leukemia,33.3 µM
same,GI50,SK-MEL-5 melanoma,2.45 µM
same,TGI,SK-MEL-5 melanoma,7.27 µM
same,GI50,UACC-257 melanoma,4.95 µM
same,TGI,UACC-257 melanoma,19.2 µM
same,GI50,SK-OV-3 ovarian,13.8 µM
same,TGI,SK-OV-3 ovarian,49.8 µM
same,GI50,HCT-116 colon,4.45 µM
same,TGI,HCT-116 colon,16 µM
same,GI50,M14 melanoma,16.9 µM
same,TGI,M14 melanoma,68.3 µM
same,GI50,A549 NSCLC,4.62 µM
same,TGI,A549 NSCLC,24 µM
same,GI50,COLO 205 colon,17.1 µM
same,TGI,COLO 205 colon,78 µM
same,GI50,SN12C renal,5.83 µM
same,TGI,SN12C renal,49.4 µM
same,GI50,786-0 renal,7.49 µM
same,TGI,786-0 renal,33.6 µM
same,GI50,OVCAR-3 ovarian,3.56 µM
same,TGI,OVCAR-3 ovarian,15.4 µM
same,GI50,KM12 colon,6.61 µM
same,TGI,KM12 colon,43.9 µM
same,GI50,RXF 393 renal,4.56 µM
same,TGI,RXF 393 renal,22.3 µM
same,GI50,IGROV1 ovarian,18.9 µM
same,TGI,IGROV1 ovarian,> 100 µM
same,GI50,SNB-75 CNS,9.67 µM
same,TGI,SNB-75 CNS,35.4 µM
same,GI50,UACC-62 melanoma,13.3 µM
same,TGI,UACC-62 melanoma,33.3 µM
same,GI50,OVCAR-5 ovarian,12.9 µM
same,TGI,OVCAR-5 ovarian,44.1 µM
same,GI50,RPMI-8226 leukemia,2.09 µM
same,TGI,RPMI-8226 leukemia,4.48 µM
same,GI50,SW-620 colon,5.93 µM
same,TGI,SW-620 colon,46 µM
same,GI50,UO-31 renal,12.4 µM
same,TGI,UO-31 renal,43.9 µM
same,GI50,SF-539 CNS,5.29 µM
same,TGI,SF-539 CNS,20.1 µM
same,GI50,CCRF-CEM leukemia,5.19 µM
same,TGI,CCRF-CEM leukemia,18.4 µM
same,GI50,MDA-MB-435 melanoma,3.21 µM
same,TGI,MDA-MB-435 melanoma,26.6 µM
same,GI50,DU-145 prostate,10.1 µM
same,TGI,DU-145 prostate,> 100 µM
same,GI50,BT-549 breast,3.08 µM
same,TGI,BT-549 breast,8.84 µM
same,GI50,EKVX NSCLC,3.64 µM
same,TGI,EKVX NSCLC,14.6 µM
same,GI50,HOP-62 NSCLC,13.5 µM
same,TGI,HOP-62 NSCLC,35.5 µM
same,GI50,NCI-H460 NSCLC,2.89 µM
same,TGI,NCI-H460 NSCLC,11.6 µM
same,GI50,MDA-MB-231 breast,5.07 µM
same,TGI,MDA-MB-231 breast,30.8 µM
same,GI50,HL-60(TB) leukemia,2.74 µM
same,TGI,HL-60(TB) leukemia,5.97 µM
same,GI50,LOX IMVI melanoma,3.74 µM
same,TGI,LOX IMVI melanoma,13.3 µM
same,GI50,HCC-2998 colon,5.29 µM
same,TGI,HCC-2998 colon,24.5 µM
same,GI50,OVCAR-4 ovarian,6.02 µM
same,TGI,OVCAR-4 ovarian,> 100 µM
same,GI50,HOP-92 NSCLC,3.63 µM
same,TGI,HOP-92 NSCLC,16.4 µM
same,GI50,SF-295 CNS,3.99 µM
same,TGI,SF-295 CNS,22.1 µM
same,GI50,NCI-H522 lung,2.87 µM
same,TGI,NCI-H522 lung,8.65 µM
same,GI50,HT29 colon,4.53 µM
same,TGI,HT29 colon,> 100 µM
same,GI50,NCI-H226 lung,6.27 µM
same,TGI,NCI-H226 lung,20.2 µM
same,GI50,SK-MEL-2 melanoma,33.1 µM
same,TGI,SK-MEL-2 melanoma,49.5 µM
same,GI50,K-562 leukemia,7.36 µM
same,TGI,K-562 leukemia,55.7 µM
same,GI50,SF-268 CNS,3.78 µM
same,TGI,SF-268 CNS,27.5 µM
same,GI50,NCI-H322M lung,3.85 µM
same,TGI,NCI-H322M lung,16.4 µM
same,GI50,TK-10 renal,11.4 µM
same,TGI,TK-10 renal,> 100 µM
same,GI50,CAKI-1 renal,5.52 µM
same,TGI,CAKI-1 renal,39 µM
same,GI50,HS 578T breast,3.02 µM
same,TGI,HS 578T breast,10.6 µM
same,GI50,NCI-H23 lung,2.98 µM
same,TGI,NCI-H23 lung,13.1 µM
same,GI50,SNB-19 CNS,5.5 µM
same,TGI,SNB-19 CNS,75.6 µM
same,GI50,MCF7 breast,7.65 µM
same,TGI,MCF7 breast,25.2 µM
same,GI50,MALME-3M melanoma,5.38 µM
same,TGI,MALME-3M melanoma,24.4 µM
same,GI50,NCI/ADR-RES ovarian,3.26 µM
same,TGI,NCI/ADR-RES ovarian,15.9 µM
